Measured values as given in patent US20260193180A1, “AUTOPHAGY INDUCING COMPOUNDS AND USES THEREOF” (SAMSARA THERAPEUTICS INC., priority 2022, published 2026).
Counter-ions that a name gives are not always drawn.

Test system: Human osteosarcoma U2OS cells
Assay: Acidic vesicle formation (lysosome/autolysosome staining, LysoView 633 / LysoTracker Deep Red), stimulation of autophagy
Format: cell-based
Conditions: 24 hours; for activation at 0.8 µM: read-out: Activity (percentage increase in acidic vesicle formation over the DMSO-treated control); for activation at 10 µM: read-out: increase in acidic vesicle formation over the DMSO-treated control
Method: Lysosomes play a fundamental role in the autophagic pathway by fusing with autophagosomes and creating ‘autolysosomes’ in order to digest their contents. Stimulation of lysosome and autolysosome formation by a compound is indicative of a stimulation of autophagy. The ability of compounds to stimulate lysosome and autolysosome formation, and thus autophagy, in live cells was assessed via fluorescent microscopy using various fluorescent stains for labelling and tracking acidic organelles (including lysosomes and autolysosomes) such as: LysoView™ 650 (70059 and 70059-T, Biotium), LysoView™633 (70058 and 70058-T, Biotium) and LysoTracker™ Deep Red (L12492, ThermoFisher Scientific). The cellular phenotype was quantitatively assessed for the induction of acidic vesicle formation and compared to a non-treated control, thus providing a measure of the ability of the compound under investigation to stimulate autophagy.
Representative procedure using LysoView™633 dye or LysoTracker™ Deep Red dye: Human osteosarcoma U2OS cells (40,000 cells/well) were seeded in a 24 well glass bottom plate (Sensoplate, Greiner Bio-One) and were incubated overnight in a humidified atmosphere at 37° C. and 5% CO2. Cells were grown in DMEM (Gibco) supplemented with 10% Fetal Bovine Serum (FBS) and 100 units/ml penicillin and 100 μg/ml streptomycin (Invitrogen). After the attachment period, cells were treated with different compounds of interest (at various concentrations in DMSO) or DMSO (non-treated control) in cell culture medium and were incubated for 24 hours. Compound-containing medium was removed and cells were incubated with pre-warmed cell culture medium containing 1× LysoView™ 633 (70058 and 70058-T, Biotium) or 50 nM LysoTracker™ Deep Red (L12492, ThermoFisher Scientific) for 45 minutes at 37° C. Finally, cell nuclei were stained for 10 minutes using Hoechst 33342 (1 μg/mL) and then the medium was replaced with fresh medium. The 24 well plate was then fitted into a heated stage on the microscope and cells maintained at 37° C. Images were captured using appropriate filter set for Cy5 and DAPI detection with the EVOS M7000 Microscope (ThermoFisher Scientific). The cellular phenotype was visually assessed for the induction of acidic vesicle formation relative to the non-treated control; multiple images were acquired and analysed using ImageJ or Cell Profiler.

NC[C@@H]1CCN(Cc2cc(Cl)ccc2OCCO)C1 [Compound 25, (S)-2-(2-((3-(aminomethyl)pyrrolidin-1-yl)methyl)-4-chlorophenoxy)ethan-1-ol hydrochloride]
activation at 0.8 µM: 30 to 50% | activation at 10 µM: ≥ 25%

CCCOc1ccc(Cl)cc1CN1CCN[C@@H](C)C1 [Compound 47, (S)-1-(5-chloro-2-propoxybenzyl)-3-methylpiperazine hydrochloride]
activation at 0.8 µM: 30 to 50% | activation at 10 µM: ≥ 25%

CCOc1ccc(Cl)cc1CCN1CCC[C@@H](CN)C1 [Compound 45, (S)-(1-(5-chloro-2-ethoxyphenethyl)piperidin-3-yl)methanamine hydrochloride]
activation at 0.8 µM: 50 to 100% | activation at 10 µM: ≥ 25%

CCCOc1ccc(OC(F)(F)F)cc1CN1CCN[C@@H](C)C1 [Compound 32, (S)-3-methyl-1-(2-propoxy-5-(trifluoromethoxy)benzyl) piperazine hydrochloride]
activation at 0.8 µM: 50 to 100% | activation at 10 µM: ≥ 25%

NC[C@@H]1CCN(CCc2cc(Cl)cc3c2OCO3)C1 [Compound 33, (S)-(1-(2-(6-chlorobenzo[d][1,3]dioxol-4-yl)ethyl)pyrrolidin-3-yl)methanamine hydrochloride]
activation at 10 µM: ≥ 25%

NC[C@@H]1CCN(Cc2cc(Cl)ccc2OCC2CC2)C1 [Compound 4, (S)-(1-(5-chloro-2-(cyclopropylmethoxy)benzyl)pyrrolidin-3-yl)methanamine hydrochloride]
activation at 0.8 µM: 30 to 50% | activation at 10 µM: ≥ 25%

CCOc1ccc(Cl)cc1CN1CC[C@H](N)C1 [Compound 69, (S)-1-(5-chloro-2-ethoxybenzyl)pyrrolidin-3-amine hydrochloride]
activation at 10 µM: ≥ 25%

CCOc1cc(F)c(F)cc1CN1CC[C@@H](CN)C1 [Compound 22, (S)-(1-(2-ethoxy-4,5-difluorobenzyl)pyrrolidin-3-yl)methanamine hydrochloride]
activation at 10 µM: ≥ 25%

CCOc1ccc(Cl)cc1CN1CC[C@@H](CN(C)C)C1 [Compound 50, (S)-1-(1-(5-chloro-2-ethoxybenzyl)pyrrolidin-3-yl)-N,N-dimethylmethanamine]
activation at 0.8 µM: 10 to 30% | activation at 10 µM: ≥ 25%

CCOc1ccc(C(F)(F)F)cc1CN1CC[C@@H](CN)C1 [Compound 2, (S)-(1-(2-ethoxy-5-(trifluoromethyl)benzyl)pyrrolidin-3-yl)methanamine hydrochloride]
activation at 0.8 µM: 10 to 30% | activation at 10 µM: ≥ 25%

CCOc1ccc(Cl)cc1CN1CC(CN)C1 [Compound 17, (1-(5-chloro-2-ethoxybenzyl)azetidin-3-yl)methanamine hydrochloride]
activation at 0.8 µM: 50 to 100% | activation at 10 µM: ≥ 25%

CCOc1cc(C#N)c(Cl)cc1CN1CC[C@H](CN)C1 [Compound 60, (R)-4-((3-(aminomethyl)pyrrolidin-1-yl)methyl)-2-chloro-5-ethoxybenzonitrile hydrochloride]
activation at 10 µM: ≥ 25%

CCOc1cc(Cl)c(Cl)cc1CN1CCN[C@@H](C)C1 [Compound 37, (S)-1-(4,5-dichloro-2-ethoxybenzyl)-3-methylpiperazine hydrochloride]
activation at 0.8 µM: 10 to 30% | activation at 10 µM: ≥ 25%

CC(C)Oc1ccc(Cl)cc1CN1CC[C@@H](CN)C1 [Compound 53, (S)-(1-(5-chloro-2-isopropoxybenzyl)pyrrolidin-3-yl)methanamine hydrochloride]
activation at 10 µM: ≥ 25%

CCOc1ccc(Cl)cc1CN1CCC(N(C)C)CC1 [Compound 11, 1-(5-chloro-2-ethoxybenzyl)-N,N-dimethylpiperidin-4-amine]
activation at 0.8 µM: 10 to 30% | activation at 10 µM: ≥ 25%

CCCOc1ccc(Cl)cc1CCN1CCC[C@@H](CN)C1 [Compound 43, (S)-(1-(5-chloro-2-propoxyphenethyl)piperidin-3-yl)methanamine hydrochloride]
activation at 0.8 µM: 50 to 100% | activation at 10 µM: ≥ 25%

CCOc1ccc(Cl)cc1CCN1CCC[C@H](N)C1 [Compound 19, (S)-1-(5-chloro-2-ethoxyphenethyl)piperidin-3-amine hydrochloride]
activation at 10 µM: ≥ 25%
